Assay results reported in PubChem BioAssay (NCI).
Several values for one entry are separate records, joined by “and”; a condition that tells them apart may be missing. Equal values may be shown once.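 In this assay, cells in 96-well plates receive the compound at five concentrations for 48 hours. Endpoints are linearly interpolated between the surrounding concentrations. GI50: concentration for 50% inhibition of growth. TGI is the concentration that stops growth completely.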 Where a SMILES comes first, the peptide text is derived from it. The star is where a group is joined. Boc = CC(C)(C)OC(=O)*

Columns and labels:
Assay in all cases: growth of human tumour cells (NCI), 48 h
[1] = system: U251 CNS
[2] = system: A498 renal
[3] = system: OVCAR-3 ovarian
[4] = system: SK-MEL-2 melanoma
[5] = system: SF-295 CNS
[6] = system: SF-539 CNS
[7] = system: SW-620 colon
[8] = system: LOX IMVI melanoma
[9] = system: MDA-MB-231 breast
[10] = system: PC-3 prostate

Structure (SMILES) | TGI [1] | TGI [2] | TGI [3] | TGI [4] | TGI [5] | TGI [6] | TGI [7] | TGI [8] | GI50 [9] | TGI [9] | GI50 [1] | GI50 [2] | GI50 [3] | GI50 [10] | TGI [10] | GI50 [5] | GI50 [8] | GI50 [6] | GI50 [7] | GI50 [4]
C[C@]12CCC(=O)C=C1CC[C@@H]1C2CC[C@]2(C)Nc3[nH]ncc3CC12 (some centres undefined) | > 100 µM | > 100 µM | > 100 µM | > 100 µM | > 100 µM | > 100 µM | > 100 µM |  |  |  |  |  |  |  |  |  |  |  |  | 
CCN(CC)CCSc1c2ccccc2nc2c(OC)ccc(OC)c12 | 49.4 µM | 32.5 µM |  | > 23 µM | 59.4 µM | > 33.9 µM |  | > 41.2 µM |  |  |  |  |  |  |  |  |  |  |  | 
C#Cc1nc(Nc2cc(C)[nH]n2)c2ccccc2n1 | 0.885 µM | 0.3 µM | 0.52 µM |  | 2.26 µM | 0.451 µM | 1.3 µM | 0.308 µM | 0.203 µM | 0.424 µM | 0.256 µM | 139 nM | 242 nM | 0.317 µM | 1.4 µM | 0.609 µM | 151 nM | 189 nM | 0.327 µM | 
COC(=O)C(C)NC(=O)C(CCSC)NC(=O)C(Cc1ccccc1)NC(=O)OC(C)(C)C (stereo not drawn) (Boc-Phe-Met-Ala-OMe; configuration not given here) | 67 µg/mL and > 100 µM |  | 52.7 µg/mL and > 100 µM | > 100 µM | > 100 µM | > 100 µM | 37.2 µg/mL and > 100 µM | 43 µg/mL and > 100 µM | 33.2 µg/mL | > 100 µM | 22.6 µg/mL |  | 26.6 µg/mL |  | > 100 µM |  | 20.3 µg/mL |  | 18.2 µg/mL | 
Oc1ccc2ccccc2c1N=Nc1ccc(Br)cc1 | > 100 µM |  | > 100 µM | > 100 µM | > 100 µM |  | > 100 µM | > 100 µM |  | > 100 µM |  |  |  |  | > 100 µM |  |  |  |  | 
COC12OCCN(C)C1=CC(=O)C1=NNC(C)C12 (centres undefined) | > 100 µM | > 100 µM | > 100 µM |  | > 100 µM | > 100 µM | > 100 µM | > 100 µM |  |  |  |  |  |  |  |  |  |  |  | 
S=c1[nH]c2c(Cl)c(Cl)c(Cl)c(Cl)c2[nH]1 | > 100 µM | 46.5 µM | 97.3 µM |  | 47.1 µM | 26.3 µM | 49.2 µM | 40.8 µM |  | 47.9 µM |  |  |  |  | 77.6 µM |  |  |  |  | 
CC(C(=O)O)c1cccc(Oc2ccccc2)c1 (centres undefined) | > 100 µM | > 100 µM | > 100 µM |  | > 100 µM | > 100 µM | > 100 µM | > 100 µM | > 100 µM | > 100 µM | > 100 µM | > 100000 nM | > 100000 nM | > 100 µM | > 100 µM | > 100 µM | > 100000 nM | > 100000 nM | > 100 µM | 
O=C1CCC(=O)c2c1c(O)c1ccncc1c2O | 64.3 µM |  | 7.24 µM | 26.4 µM | 36.4 µM | 29 µM | 35.8 µM | 27.4 µM |  |  |  |  |  |  |  |  |  |  |  | 
[N-]=[N+]=N/C1=C/CCCCC(=O)C1 |  |  |  | > 100 µM |  |  | > 100 µM | > 100 µM |  |  |  |  |  |  |  |  |  |  |  | 
COc1ccc(-c2cc(/C=C/C(=O)c3ccc(OC)c(OC)c3)[nH]n2)cc1 | 2.34 µM | 3.55 µM | 2.47 µM |  | 5.37 µM | 2.61 µM | 3.59 µM |  | 2 µM | 6.63 µM | 1.11 µM | 1420 nM | 1190 nM | 1.45 µM | 3.46 µM | 2.08 µM |  | 1270 nM | 1.35 µM | 
COC(=O)c1ccc2c(c1)/C(=C\c1cc(Br)c(O)c(Br)c1)C(=O)N2 | > 25 µM | 11 µM | > 25 µM |  | > 24 µM | > 25 µM | > 25 µM | > 25 µM | 6.83 µM | > 25 µM | 6.59 µM | 3480 nM | 8140 nM | 7.68 µM | > 25 µM | 5.1 µM | 4130 nM | 5850 nM | 8.4 µM | 
Cc1ccc(S(=O)OCc2c(C)c(C)c(COS(=O)c3ccc(C)cc3)c(C)c2C)cc1 (centres undefined) | > 100 µM | > 100 µM | > 100 µM |  | > 100 µM | > 100 µM | > 100 µM | > 100 µM |  |  |  |  |  |  |  |  |  |  |  | 
COc1cccc2c1C(=O)c1c(O)c3c(c(O)c1C2=O)C[C@@](O)(/C(C)=N/NC(=O)c1ccc(Cl)cc1)C[C@@H]3OC1CC(N)C(O)C(C)O1 (some centres undefined) |  | 0.625 µM | 2.4 µM |  | 2.2 µM | 0.747 µM |  |  | 0.603 µM | 2.77 µM |  | 129 nM | 395 nM | 0.293 µM | 1.6 µM | 0.236 µM |  | 210 nM |  | 
O=C(Nc1ccc(Cl)c(C(F)(F)F)c1)c1ccc(NC2=C(Cl)C(=O)N(Cc3ccccc3)C2=O)cc1 | 5.23 µM |  | 37.9 µM | 38.7 µM | 52.8 µM | 23.9 µM |  | 2.63 µM | 17.1 µM | 31 µM | 2.15 µM |  | 18600 nM | 3.39 µM | 11.8 µM | 19.7 µM | 1240 nM | 8920 nM |  | 13.8 µM
CCOC(=O)c1c(-c2ccc(OC)cc2)c(C#N)c2c(C#N)c(N)nn2c1N | 23.7 µM | 7.88 µM | 14.2 µM | 26.5 µM | 32.9 µM | 8.6 µM | > 100 µM | > 100 µM | 3.63 µM | 23.2 µM | 4.19 µM | 1730 nM | 3280 nM |  |  | 2.98 µM | 4810 nM | 2390 nM | 5.62 µM | 3.35 µM
CCOC(=O)c1ccc(N=Nc2cc(C(=O)OCC)ccc2O)cc1 | > 100 µM | > 100 µM |  |  |  | > 100 µM | > 100 µM | > 100 µM |  |  |  |  |  |  |  |  |  |  |  | 
O=[N+]([O-])c1ccc(CI)cc1 | 10.4 µM | 9.56 µM | 5.41 µM |  | 13.7 µM | 8.19 µM | 3.22 µM | 2.9 µM | 1.23 µM | 4.08 µM | 2.91 µM | 2290 nM | 2400 nM |  |  | 3.76 µM | 1300 nM | 2660 nM | 0.803 µM | 
Cn1c2ccccc2c2ncc3[nH]c4ccccc4c3c21 | 39.9 µM | 36.7 µM | 31.6 µM | > 100 µM | 47.9 µM | 32.4 µM | 71 µM | 56.2 µM |  |  |  |  |  |  |  |  |  |  |  | 
CS/C(=C(\S)c1ccccc1)c1ccccc1 | > 100 µM | > 100 µM | > 100 µM | > 100 µM | > 100 µM | > 100 µM | > 100 µM | > 100 µM |  |  |  |  |  |  |  |  |  |  |  | 
O=C1c2cc3c(cc2-c2c1c1cc(Cl)c(Cl)cc1c(=O)n2C[C@H](O)CO)OCO3 | 0.0368 µM | 0.032 µM | 0.0769 µM | 0.374 µM |  | 0.0175 µM | 2.08 µM | 0.0117 µM | 0.0796 µM | 1.66 µM | < 0.01 µM | < 10 nM | 15.7 nM |  |  | < 0.01 µM | < 10 nM | < 10 nM | < 0.01 µM | 0.0488 µM
O=c1[nH]c2ccc(O)cc2o1 | > 100 µM | > 100 µM | > 100 µM |  | > 100 µM | > 100 µM | > 100 µM |  |  | > 100 µM |  |  |  |  | > 100 µM |  |  |  |  | 
CC(=O)N1CCC(=O)/C(=C/c2ccccc2)C1 | 34.3 µM | > 100 µM | 93.5 µM |  | > 100 µM | > 100 µM | 34.8 µM | 32.9 µM |  |  |  |  |  |  |  |  |  |  |  | 
C=CCN1CCC23c4c5ccc(O)c4OC2C(=NN=C2CCC4(O)C6Cc7ccc(O)c8c7C4(CCN6CC=C)C2O8)CCC3(O)C1C5 (centres undefined) | 34.9 µM | 41.5 µM | 34.5 µM | 33.8 µM | 40.9 µM | 33.1 µM | 48.9 µM | 41.1 µM |  |  |  |  |  |  |  |  |  |  |  | 
COC(=O)c1ccc(-c2c(C#N)[n+](=O)c3cc(Cl)c(Cl)cc3n2[O-])cc1 | 44.9 µM | > 100 µM | 27.8 µM |  | 33.7 µM | 40.5 µM | 45.4 µM | 5.37 µM | 14.4 µM | 33.5 µM | 16.7 µM | 38600 nM | 11000 nM | 9.79 µM | 27.9 µM | 12.5 µM | 2380 nM | 19700 nM | 17.8 µM | 
CC(C)=CCc1cc2c(cc1O)OC[C@H]1c3cc4c(cc3O[C@@H]21)OCO4 | > 100 µM |  | > 100 µM |  | > 100 µM | > 100 µM | > 100 µM | 31.7 µM |  | > 100 µM |  |  |  |  | > 100 µM |  |  |  |  | 
CN(C)CCNC(=O)c1cccc2c(Nc3ccc(S(=O)(=O)N=C(N)N)cc3)c3ccccc3nc12 | 67 µM |  |  | 38.5 µM | 75.2 µM | 36.7 µM | > 100 µM | 20.8 µM |  |  |  |  |  |  |  |  |  |  |  | 
COc1ccc(Cn2c(N)c(S(=O)(=O)c3ccc(Cl)cc3)c3nc(C#N)c(C#N)nc32)cc1 | 30.3 µM |  | 19.4 µM | > 50 µM | > 50 µM | > 50 µM | > 50 µM | 38.3 µM | 3.1 µM | 20.9 µM | 10.1 µM |  | 2900 nM | 33.5 µM | > 50 µM | 10.8 µM | 8270 nM | > 50000 nM | > 50 µM | 29.8 µM
COC(=O)c1s/c(=N\C(=S)N(C)C)n(-c2ccc(Cl)cc2)c1C(=O)OC | > 100 µM | > 100 µM | > 100 µM | > 100 µM | > 100 µM | > 100 µM | > 100 µM | > 100 µM |  |  |  |  |  |  |  |  |  |  |  | 
